Assay results from patent US8951563B2, “Antibiotic drug delivery and potentiation” (Technion Research & Development Foundation Limited, priority 2009, dated 2015).
Converted amounts (≈) assume the structure as drawn.

What was measured:
E. coli 14182 = assay: Antibiotic MIC / chemo-sensitization checkerboard with OAK, E. coli 14182; type: cell-based; conditions: for MIC: Escherichia coli, OAK: None; for FIC: antibiotic combined with C12K-7α8
Description: (§1) Bacteria were grown overnight in LB growth medium and diluted 10,000-fold in same medium.
(§2) Inhibition of proliferation was determined by optical density measurements (620 nm) after incubation overnight at 37° C.
(§3) Synergistic effect of the combinations was assessed by determination of the fractional inhibitory concentration (FIC) where FIC=(MIC OAK in combination with antibiotic)/(MIC OAK alone)+(MIC antibiotic in combination)/(MIC antibiotic alone). Synergy was determined for FIC 0.5.

[1] = test system: E. coli AG100A, ΔacrAB (efflux−); type: cell-based; conditions: sub-MIC C12K-7α8
Description: as §1, §3

[2] = test system: E. coli AG100, wild type (efflux+); type: cell-based; conditions: sub-MIC C12K-7α8
Description: as §1, §3

E. coli U-16327 = assay: Antibiotic MIC / chemo-sensitization checkerboard with OAK, E. coli U-16327; type: cell-based; conditions: for MIC: Escherichia coli, U16327, OAK: None; for FIC: antibiotic combined with C12K-7α8
Description: as §1, §2, §3

E. coli U-16329 = assay: Antibiotic MIC / chemo-sensitization checkerboard with OAK, E. coli U-16329; type: cell-based; conditions: for MIC: Escherichia coli, U16329, OAK: None; for FIC: antibiotic combined with C12K-7α8
Description: as §1, §2, §3

E. coli 14384 = assay: Antibiotic MIC / chemo-sensitization checkerboard with OAK, E. coli 14384; type: cell-based; conditions: for MIC: Escherichia coli; for FIC: antibiotic combined with C12K-7α8
Description: as §1, §2, §3

E. coli = type: cell-based
Description: (§4) All bacteria were cultured in Luria-Bertani (LB) medium (10 g/l tryptone, 5 g/l yeast extract, 5 g/l NaCl, pH 7.4).
as §1, §2

A. aureus = type: cell-based
Description: as §4, §1, §2

[3] = Cochleate formation by light microscopy; type: physicochemical; design: key: or above (E!); excellent (E); good (G); poor (P); none (N); conditions: 1:10 lipid to polymer ratio
Description: Lipid films containing binary mixtures of lipids were made from aliquots of stock solutions in chloroform:methanol (2:1). The solvent was evaporated with a stream of nitrogen gas and the lipids deposited as a film on the walls of a glass tube. The tubes were then placed in a vacuum dessicator for 3 hours. The films were kept under Argon at −20° C. The lipid films were hydrated with buffer solutions of OAK polymers with extensive vortexing, so as to have a lipid to polymer molar ratio of […].
Hydrated films were subjected to freeze thawing three times before imaging, to ensure proper equilibration of OAK with the multilamellar vesicles. A drop of this mixture was placed on a glass slide and covered with a glass coverslip. Light microscopy was carried out at room temperature using a Zeiss Axiovert 100M microscope with a Plan-Neofluar 100×/1.3 oil immersion objective. Images were analyzed with the Zeiss LSM image browser v2.8.
The morphology of the samples of different OAKs and different lipid mixtures could be classified into the following categories.
Table 5 presents the results of cochleate formation with different lipid mixtures of 1:10 lipid to polymer ratio, and a series of OAK polymers, indicated by their alternative denotations and SED ID Nos in parentheses. “Tm” denotes the melting temperature of the lipid bilayer afforded by the given lipid mixture. Some selected samples were further analyzed to confirm the results with freeze fracture electron microscopy for, as indicated in Table 5. Cochleate formation is defined as excellent (E) or above (E!), good (G), poor (P), or none (N) based on the aforementioned comparison, as well as on the abundance of cochleate structures observed in the light microscopy images. Lipid mixtures having a number in parenthesis are samples for which freeze-fracture electron microscopy analysis was conducted. Lipid mixtures having a “+” sign next to the number in parenthesis are samples which were confirmed by freeze-fracture electron microscopy as forming large cochleates with few vesicles and no inverted micellar (HII) morphology (samples 2, 3 and 5), or smaller cochleate structures mixed with other morphologies (samples 0 and 4). Lipid mixtures which contain only anionic lipids are marked with “^A”. Sample 0 is the lipid/OAK system used and presented in Example 1 hereinabove.

[4] = Molecular charge and RP-HPLC hydrophobicity of polymers; type: physicochemical; conditions: HPLC-RP gradient mobile phase
Source text: Briefly, the polymers were synthesized while applying the Fmoc active ester chemistry on a fully automated, programmable peptide synthesizer (Applied Biosystems 433A). After cleavage from the resin, the crude product was extracted with 30% acetonitrile in water and purified by RP-HPLC (Alliance Waters), so as to obtain a chromatographic homogeneity higher than 95%. HPLC runs were typically performed on C18 columns (Vydac, 250 mm×4.6 or 10 mm) using a linear gradient of acetonitrile in water (1% per minute), both solvents containing 0.1% trifluoroacetic acid. The purified polymers were subjected to mass spectrometry (ZQ Waters) and NMR analyses to confirm their composition, and stored as a lyophilized powder at −20° C. Prior to being tested, fresh solutions were prepared in water, vortexed, sonicated, centrifuged and then diluted in the appropriate medium.
“Q” represents the overall molecular charge at physiological pH; “ACN (%)” represents the percent of acetonitrile in the HPLC-RP gradient mobile phase at which the polymer was eluted and which corresponds to the estimated hydrophobicity of the polymer. The column headed by “Ref.” indicates prior reference of the OAK if present, wherein a number in parentheses “(##)” corresponds to the SEQ ID NO in U.S. Pat. No. 7,504,381; the letter “R” indicates a polymer published in Radzishevsky I. S. et al. (2008), Chem. Biol., 15(4), pp. 354-362; and “New” indicates a novel polymer disclosed herein.

| Compound | Antibiotic MIC in presence of OAK (E. coli 14182; +1.7 μg/ml C12K-7α8 (¼ MIC)) [µg/mL] | Antibiotic MIC in presence of OAK (E. coli 14182; +3.5 μg/ml C12K-7α8 (½ MIC)) [µg/mL] | Antibiotic MIC in presence of OAK (E. coli 14182; +[…] C12K-7α8 (⅓ MIC)) [µg/mL] | MIC (E. coli 14182) [µg/mL] | FIC [1] | FIC [2] | Antibiotic MIC in presence of OAK (E. coli U-16327; +1.7 μg/ml C12K-7α8 (¼ MIC)) [µg/mL] | Antibiotic MIC in presence of OAK (E. coli U-16327; +3.5 μg/ml C12K-7α8 (½ MIC)) [µg/mL] | Antibiotic MIC in presence of OAK (E. coli U-16327; +[…] C12K-7α8 (⅓ MIC)) [µg/mL] | MIC (E. coli U-16327) [µg/mL] | Antibiotic MIC in presence of OAK (E. coli U-16329; +1.7 μg/ml C12K-7α8 (¼ MIC)) [µg/mL] | Antibiotic MIC in presence of OAK (E. coli U-16329; +3.5 μg/ml C12K-7α8 (½ MIC)) [µg/mL] | Antibiotic MIC in presence of OAK (E. coli U-16329; +[…] C12K-7α8 (⅓ MIC)) [µg/mL] | MIC (E. coli U-16329) [µg/mL] | FIC (E. coli U-16329) | Antibiotic MIC in presence of OAK (E. coli 14384; +1.7 μg/ml C12K-7α8 (¼ MIC)) [µg/mL] | Antibiotic MIC in presence of OAK (E. coli 14384; +3.5 μg/ml C12K-7α8 (½ MIC)) [µg/mL] | Antibiotic MIC in presence of OAK (E. coli 14384; +[…] C12K-7α8 (⅓ MIC)) [µg/mL] | MIC (E. coli 14384; OAK: None) [µg/mL] | FIC (E. coli 14182) | other results |
| --- | --- | --- | --- | --- | --- | --- | --- | --- | --- | --- | --- | --- | --- | --- | --- | --- | --- | --- | --- | --- | --- |
| CC1(C)S[C@@H]2[C@H](NC(=O)Cc3ccccc3)C(=O)N2[C@H]1C(=O)O [Penicillin G, penicillin G] | >512 | >512 | >512 | > 512 | 1.0 | 0.58 | >512 | 512 | >512 | > 512 | 256 | 128 to 256 | 256 | 256 | 1 | >512 | >512 | >512 | > 512 | – | – |
| gentamicin [Gentamycin] | – | 64 to 128 | – | – | 1.0 | 1.0 | 4 | 1 to 2 | 2 | – | – | – | – | – | – | 4 | 2 | 2 to 4 | – | 1 | Antibiotic MIC (E. coli U-16327; OAK: None): 4 µg/mL; FIC (E. coli U-16327): 0.75; Antibiotic MIC (E. coli 14384; OAK: None): 4 µg/mL; FIC (E. coli 14384): 1 |
| CCN1CCN(C(=O)N[C@@H](C(=O)N[C@@H]2C(=O)N3[C@@H]2SC(C)(C)[C@@H]3C(=O)O)c2ccccc2)C(=O)C1=O [Piperacillin, piperacillin] | >512 | 64 | >512 | 512 | – | 0.75 | 256 | 64 | 128 to 256 | 256 | 128 to 256 | 64 | 128 | 256 | 0.75 | 256 to 512 | 128 | 256 to 512 | 256 to 512 | 0.63 | FIC (E. coli U-16327): 0.63; FIC (E. coli 14384): 0.63 |
| Cc1onc(-c2ccccc2)c1C(=O)N[C@@H]1C(=O)N2[C@@H]1SC(C)(C)[C@@H]2C(=O)O [Oxacillin, oxacillin] | >512 | >512 | >512 | > 512 | 0.75 | 0.5 | >512 | 512 | >512 | > 512 | >512 | 512 | >512 | > 512 | – | >512 | >512 | >512 | > 512 | – | – |
| CCCCCCCCCCCC(=O)NC(CCCCN)C(=O)NCCCCCCCC(=O)NC(CCCCN)C(=O)NCCCCCCCC(=O)NC(CCCCN)C(=O)NCCCCCCCC(=O)NC(CCCCN)C(=O)NCCCCCCCC(=O)NC(CCCCN)C(=O)NCCCCCCCC(=O)NC(CCCCN)C(=O)NCCCCCCCC(=O)NC(CCCCN)C(=O)NCCCCCCCC(=O)NC(CCCCN)C(=O)NCCCCCCCC(=O)NC(CCCCN)C(=O)NCCCCCCCC(=O)NC(CCCCN)C(N)=O (stereo not drawn) [C12K-9α8, C12K(NC8K)9NH2] | – | – | – | – | – | – | – | – | – | – | – | – | – | – | – | – | – | – | – | – | MIC E. coli (E. coli): 6.25 µM (≈ 17.2 µg/mL); MIC A. aureus (A. aureus): >50 µM; Cochleate formation ([3]; DMPC:TOCL 75:25): N; Cochleate formation ([3]; DMPE:DOPG 75:25): E!; Cochleate formation ([3]; DMPE:TOCL 75:25): E; Cochleate formation ([3]; DMPG:TOCL 75:25 (anionic lipids only)): N; Cochleate formation ([3]; DOPE:TOCL 75:25): G; Cochleate formation ([3]; DPPE:TOCL 75:25): E; Cochleate formation ([3]; POPC:TOCL 75:25): N; Cochleate formation ([3]; POPE:DOPG 75:25): G; Cochleate formation ([3]; POPE:TOCL 75:25): G; Cochleate formation ([3]; POPG:TOCL 75:25 (anionic lipids only)): P; ACN (%) (percent acetonitrile at elution, estimated hydrophobicity) [4]: 48.4% |
| CCCCCCCCCCCC(=O)NC(CCCCN)C(=O)NCCCCCCCC(=O)NC(CCCCN)C(=O)NCCCCCCCC(=O)NC(CCCCN)C(=O)NCCCCCCCC(=O)NC(CCCCN)C(=O)NCCCCCCCC(=O)NC(CCCCN)C(=O)NCCCCCCCC(=O)NC(CCCCN)C(=O)NCCCCCCCC(=O)NC(CCCCN)C(=O)NCCCCCCCC(=O)NC(CCCCN)C(=O)NCCCCCCCC(=O)NC(CCCCN)C(N)=O (stereo not drawn) [C12K-8α8, C12K(NC8K)8NH2] | – | – | – | – | – | – | – | – | – | – | – | – | – | – | – | – | – | – | – | – | MIC E. coli (E. coli): 3.1 µM (≈ 7.7 µg/mL); MIC A. aureus (A. aureus): >50 µM; Cochleate formation ([3]; DMPE:DOPG 75:25): G; Cochleate formation ([3]; DMPE:TOCL 75:25): E; Cochleate formation ([3]; DOPE:TOCL 75:25): G; Cochleate formation ([3]; DPPE:TOCL 75:25): E; Cochleate formation ([3]; POPE:DOPG 75:25): N; Cochleate formation ([3]; POPE:DOPG:TOCL 80:15:5): N; Cochleate formation ([3]; POPE:TOCL 75:25): G; ACN (%) (percent acetonitrile at elution, estimated hydrophobicity) [4]: 48.5% |
| CO[C@H]1/C=C/O[C@@]2(C)Oc3c(C)c(O)c4c(O)c(c(/C=N/N5CCN(C)CC5)c(O)c4c3C2=O)NC(=O)/C(C)=C\C=C\[C@H](C)[C@H](O)[C@@H](C)[C@@H](O)[C@@H](C)[C@H](OC(C)=O)[C@@H]1C [Rifampin, rifampicin] | 4 | 0.25 | 2 | 16 | 0.75 | 0.46 | 2 | 0.25 | 1 | 8 to 16 | 4 | 1 | 2 | 16 | 0.46 | 1 | 0.03 | 0.06 to 0.13 | 8 | 0.46 | FIC (E. coli U-16327): 0.38; FIC (E. coli 14384): 0.31 |
